Measurements published in paper PMC8940841, “A metabolically stable PET tracer for imaging synaptic vesicle protein 2A: synthesis and preclinical characterization of [^18F]SDM-16” (European Journal of Nuclear Medicine and Molecular Imaging, 2021).

Key:
[1] = Measurement of lipophilicity (octanol / PBS pH 7.4); assay type: physicochemical; conditions: octanol/PBS pH 7.4
Method: The logP of [^18F]SDM-16 was determined by a method modified from previously published procedures. Briefly, an aliquot of […] (10 µCi) of the radioligand was added to a 2-mL microtube containing 0.8 mL of octanol and 0.8 mL of 1 × phosphate buffered saline (1 × PBS, pH 7.4). The mixture was vortexed for 30 s and then centrifuged at 2000 g for 2 min. A subsample of the octanol (0.1 mL) and 1 × PBS (0.5 mL) layers was evaluated with a gamma counter. The major portion of the octanol layer (0.5 mL) was diluted with another 0.3 mL of octanol, mixed with a fresh portion of 0.8 mL of PBS, vortexed, centrifuged, and analyzed as described above. This process was repeated until consistent log P values were obtained, with five consecutive equilibration procedures being performed for each logP measurement. Four separate measurements were performed for [^18F]SDM-16 on different days.

[2] = Plasma free fraction (fp) by ultrafiltration; assay type: in vitro ADME, rhesus monkey; conditions: monkey, plasma (separated from spiked whole blood)
Method: The unbound fraction of [^18F]SDM-16 in plasma (fp) of rhesus monkey was measured in triplicate using the ultrafiltration method. Briefly, [^18F]SDM-16 solution was added to 3 mL of whole blood. After incubation at ambient temperature for 5 min, the blood sample was centrifuged at 3900 rpm for 5 min. A sample of the supernatant plasma (0.3 mL) was loaded onto the reservoir of a Centrifree® Ultrafiltration device (Merck Millipore Ltd. Tullagreen, Carrigtwohill, Co. Cork, IRELAND) in triplicate and centrifuged at 1228 g for 20 min. The fp value was calculated as the ratio of radioactivity in the filtrate to that in the plasma.

SV2A [3] = assay: Brain PET imaging with 1TC kinetic modeling; conditions: for VT (baseline): 1TC
Method: (§1) A total of 10 PET imaging experiments with [^18F]SDM-16 were performed in rhesus monkeys (Macaca mulatta) according to a protocol approved by the Yale University Institutional Animal Care and Use Committee (IACUC). Four monkeys were studied. […] Body temperature was maintained by a water-jacket heating pad. The animal was attached to a physiological monitor, and vital signs (heart rate, blood pressure, respirations, SPO2, EKG, ETCO2, and body temperature) were continuously monitored. A venous line was inserted in one limb for administration of radiotracer, displacement, and blocking drugs. A catheter was placed in the femoral artery in the other limb for blood sampling. Dynamic PET brain scans were performed on a Focus 220 system (Siemens Medical Solutions, Knoxville, TN, USA) with a reconstructed image resolution of approximately 1.5 mm. After a 9-min transmission scan, the radioligand was injected i.v. over 3 min. by an infusion pump. Dynamic PET scans were performed for 3 h (baseline and blocking scans) or 4 h (displacement scan).
(§2) PET images were reconstructed with built-in corrections for attenuation, normalization, scatter, randoms, and deadtime. PET brain images were registered to the animal’s MR image, which was subsequently registered to a brain atlas to define the regions of interest. Dynamic images were reconstructed using a Fourier rebinning and filtered back projection algorithm. A rhesus monkey brain atlas was used for generation of regions of interest (ROIs) and time − activity curves (TACs) for the following ROIs: amygdala, brain stem, caudate nucleus, centrum semiovale (CS), cerebellum, cingulate cortex, frontal cortex, globus pallidus, hippocampus, insula, nucleus accumbens, occipital cortex, pons, putamen, substantia nigra, temporal cortex, and thalamus.
(§3) Volume of distribution (VT, mL·cm^−3) values and the first-order kinetic rate constants of tracer (K1) were derived through 1-tissue (1T) compartment kinetic modeling with the metabolite-corrected arterial plasma input function, which was calculated as the product of the fitted total plasma curve and the parent radiotracer fraction curve. Nondisplaceable volume of distribution (VND) and SV2A occupancy by LEV was calculated using the Lassen plot [32]. Nondisplaceable binding potential (BPND) values were calculated from VT values using CS as reference region, or the VND derived from the blocking study, i.e., BPND = (VT, ROI − VT, CS)/ VT, CS or BPND = (VT/VND) -1.

[4] = Brain PET imaging with 1TC kinetic modeling; conditions: rhesus monkey, intravenous; for Kp / half-life: both
Method: as §1, §2, §3

SV2A [5] = molecular target: SV2A (Macaca mulatta, UniProt H9EQH8); assay: LEV blocking and displacement PET scans, Lassen plot; assay type: in vivo, rhesus monkeys (Macaca mulatta); design: from tissue; host or cells: brain of living rhesus monkeys (in vivo PET); conditions: for VT (blocking): LEV 30 mg/kg i.v.
Sequence of SV2A (Macaca mulatta, UniProt H9EQH8) (H9EQH8 1-742): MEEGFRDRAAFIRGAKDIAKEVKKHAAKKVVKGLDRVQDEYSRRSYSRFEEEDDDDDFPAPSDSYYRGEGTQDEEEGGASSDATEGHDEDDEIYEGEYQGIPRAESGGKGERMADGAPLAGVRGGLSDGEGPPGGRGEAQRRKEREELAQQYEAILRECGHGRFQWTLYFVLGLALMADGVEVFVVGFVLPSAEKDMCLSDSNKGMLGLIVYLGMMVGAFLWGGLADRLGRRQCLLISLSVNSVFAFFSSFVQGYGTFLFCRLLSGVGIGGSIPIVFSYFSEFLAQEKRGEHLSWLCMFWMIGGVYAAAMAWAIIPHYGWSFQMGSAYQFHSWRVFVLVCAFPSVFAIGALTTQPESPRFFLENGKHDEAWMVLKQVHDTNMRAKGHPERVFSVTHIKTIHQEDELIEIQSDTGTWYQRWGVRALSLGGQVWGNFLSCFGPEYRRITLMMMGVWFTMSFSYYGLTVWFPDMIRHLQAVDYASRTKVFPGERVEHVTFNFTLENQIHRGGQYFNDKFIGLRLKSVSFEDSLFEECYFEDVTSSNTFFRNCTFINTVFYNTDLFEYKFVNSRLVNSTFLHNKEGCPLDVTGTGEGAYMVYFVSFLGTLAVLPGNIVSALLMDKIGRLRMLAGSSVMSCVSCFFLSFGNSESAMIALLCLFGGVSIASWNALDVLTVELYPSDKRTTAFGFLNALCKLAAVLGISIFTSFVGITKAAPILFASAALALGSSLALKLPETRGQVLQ
Excerpt: Four monkeys were studied.
To examine the in vivo binding specificity, SV2A occupancy, and the extent of nonspecific binding in the monkey brain, we performed the Lassen plot analysis using data from the two baseline scans and one blocking scan in the same monkey.

[6] = Plasma radiometabolite analysis during PET scans; assay type: in vivo, rhesus monkeys
Method: Arterial blood samples were collected during the PET scans to measure the radioactivity in plasma for generation of the metabolite-corrected arterial plasma input function. Plasma radiometabolite analysis was performed using the column-switching method, following a published protocol. Briefly, arterial blood samples were collected at 3-, 8-, 15-, 30-, 60-, 90-, 120-, and 180-min post-injection (p. i.), treated with urea (8 M), filtered, and injected onto a self-packed short column (4.6 × 19 mm) eluting with 1% MeCN in water at a flow rate of 2 mL/min. The sample was then back flushed onto a Gemini-NX column (5 μm, 4.6 mm × 250 mm) eluting with 40% MeCN/60% 0.1 M ammonium formate (pH 6.4) at a flow rate of 1.2 mL/min. The eluent was fraction-collected using an automated spectrum chromatography CF-1 fraction collector. Activity in the whole blood, plasma, filtrated plasma-urea mix, filters, and HPLC fractions were counted with automatic gamma well-counter (Wizard 2, PerkinElmer). The sample recovery rate, extraction efficiency, and HPLC fraction recovery were monitored. The unmetabolized [^18F]SDM-16 parent fraction was determined as the ratio of the sum of radioactivity in fractions containing the parent compound to the total amount of radioactivity collected and fitted with inverted Gamma4 approaches.
[^18F]SDM-16 had higher metabolite-corrected plasma SUV than the other SV2A radiotracers, indicating slower plasma clearance and higher metabolic stability (Fig. 2a). Whole-blood and plasma-input functions were highly consistent between the two animals, with a stable plasma to whole-blood ratio of 0.93 ± 0.13 over the entire 180-min acquisition period (Fig. S1).

logP [1]: 1.65 ± 0.05
fraction unbound at 5 min [2]: 0.69
K1 (SV2A [3]; Amygdala): 0.10 ± 0.02 mL/cm^3 per min
VT (baseline) (SV2A [3]; Amygdala): 11.2 ± 2.0 mL/cm^3
K1 (SV2A [3]; Anterior cingulate): 0.15 ± 0.01 mL/cm^3 per min
K1 (SV2A [3]; Brainstem): 0.14 ± 0.02 mL/cm^3 per min
VT (baseline) (SV2A [3]; Brainstem): 14.1 ± 1.7 mL/cm^3
K1 (SV2A [3]; Caudate): 0.13 ± 0.02 mL/cm^3 per min
VT (baseline) (SV2A [3]; Centrum semiovale): 6.6 ± 0.9 mL/cm^3
K1 (SV2A [3]; Cerebellum): 0.18 ± 0.02 mL/cm^3 per min
K1 (SV2A [3]; Cingulate cortex): 0.15 ± 0.00 mL/cm^3 per min
VT (baseline) (SV2A [3]; Cingulate cortex): 31.3 ± 7.8 mL/cm^3
K1 (SV2A [3]; Frontal cortex): 0.14 ± 0.00 mL/cm^3 per min
VT (baseline) (SV2A [3]; Frontal cortex): 27.9 ± 6.8 mL/cm^3
K1 (SV2A [3]; Globus pallidus): 0.11 ± 0.01 mL/cm^3 per min
VT (baseline) (SV2A [3]; Globus pallidus): 17.2 ± 3.5 mL/cm^3
K1 (SV2A [3]; Hippocampus): 0.12 ± 0.02 mL/cm^3 per min
VT (baseline) (SV2A [3]; Hippocampus): 17.9 ± 2.5 mL/cm^3
K1 (SV2A [3]; Insular cortex): 0.14 ± 0.01 mL/cm^3 per min
VT (baseline) (SV2A [3]; Insular cortex): 29.8 ± 8.0 mL/cm^3
K1 (SV2A [3]; Mean ± SD over brain regions): 0.14 ± 0.03 mL/cm^3 per min
K1 (SV2A [3]; Nucleus accumbens): 0.13 ± 0.01 mL/cm^3 per min
VT (baseline) (SV2A [3]; Nucleus accumbens): 29.4 ± 8.5 mL/cm^3
K1 (SV2A [3]; Occipital cortex): 0.18 ± 0.02 mL/cm^3 per min
VT (baseline) (SV2A [3]; Occipital cortex): 29.5 ± 5.5 mL/cm^3
K1 (SV2A [3]; Putamen): 0.16 ± 0.02 mL/cm^3 per min
K1 (SV2A [3]; Temporal cortex): 0.14 ± 0.01 mL/cm^3 per min
VT (baseline) (SV2A [3]; Temporal cortex): 27.3 ± 5.7 mL/cm^3
K1 (SV2A [3]; Thalamus): 0.14 ± 0.02 mL/cm^3 per min
SUV (brain tracer uptake) (SV2A [3]; baseline scan, end of scan, frontal cortex and putamen): about 10
averaged VT as percent of that of [^11C]UCB-A (SV2A [3]; rhesus monkey, in vivo): 59%
regional K1 lower than [^11C]UCB-J (SV2A [3]; rhesus monkey, in vivo): 82%
regional K1 lower than [^18F]SynVesT-1 (SV2A [3]; rhesus monkey, in vivo): 86%
in vivo defluorination (radioactivity in skull) (SV2A [3]; up to 4-h p.i.): lack of in vivo defluorination
Kp ([4]; brain (caudate)): 21.6 ± 4.9
Kp ([4]; brain (centrum semiovale)): 6.6
half-life ([4]; brain (centrum semiovale)): 1.38 ± 0.3 h
Kp ([4]; brain (cerebellum)): 21.5 ± 3
Kp ([4]; brain (cingulate cortex)): 31.3
half-life ([4]; brain (insular cortex)): 2.53 ± 0.817 h
Kp ([4]; brain (putamen)): 26 ± 6.8
Kp ([4]; brain (thalamus)): 21.6 ± 4.9
fraction unbound ([4]; brain tissue): 0.27
VT (blocking) (SV2A [5]; Amygdala): 4.5 mL/cm^3
VT (blocking) (SV2A [5]; Brainstem): 4.5 mL/cm^3
VT (blocking) (SV2A [5]; Centrum semiovale): 3.4 mL/cm^3
VT (blocking) (SV2A [5]; Cerebellum): 6.6 mL/cm^3
VT (blocking) (SV2A [5]; Cingulate cortex): 10.4 mL/cm^3
VT (blocking) (SV2A [5]; Frontal cortex): 9.5 mL/cm^3
VT (blocking) (SV2A [5]; Globus pallidus): 6.9 mL/cm^3
VT (blocking) (SV2A [5]; Hippocampus): 5.9 mL/cm^3
VT (blocking) (SV2A [5]; Insular cortex): 10.3 mL/cm^3
reduction of tracer uptake in LEV displacement (SV2A [5]; LEV 30 mg/kg i.v. at 120 min p.i., averaged from 5 brain regions, SUV at 4 h p.i. vs 180 min baseline): 58 ± 8%
VT (blocking) (SV2A [5]; Nucleus accumbens): 10.5 mL/cm^3
VT (blocking) (SV2A [5]; Occipital cortex): 8.3 mL/cm^3
VT (blocking) (SV2A [5]; Temporal cortex): 8.6 mL/cm^3
BPND in the LEV blocking scan (SV2A [5]; cingulate cortex and nucleus accumbens, 79% SV2A occupied by LEV): up to 2.11
reduction of tracer uptake in gray matter by pre-blocking (SV2A [5]; preinjected LEV 30 mg/kg i.v., normalized terminal SUV): 57 ± 10%
parent fraction in plasma ([6]; 30 min p.i.): 89 ± 5%
parent fraction in plasma ([6]; 120 min p.i.): 80 ± 7%
plasma to whole-blood ratio ([6]; over 180-min acquisition): 0.93 ± 0.13
SMILES: Cc1nccn1CN1C[C@@H](c2cc(F)cc([18F])c2)CC1=O [[^18F]SDM-16, (R)-4-(3-fluoro-5-(fluoro-^18F)phenyl)-1-((2-methyl-1H-imidazol-1-yl)methyl)pyrrolidin-2-one]
